Measurements: ChEMBL document CHEMBL1128855, “Design and synthesis of an antitumor prodrug released by the reaction with sulfhydryl compounds” (Bioorg Med Chem Lett, 1995)
In brackets after ≈: the same amount, converted by molar mass.

Tests used:
HeLa = assay: Cytotoxic activity against HeLa S3 cells; assay type: functional, cell-based; details: Homo sapiens
L1210 (1565) [1] = assay: Cytotoxic activity against L-1210 parental cell line; assay type: functional, cell-based, Mus musculus
L1210 (1565) [2] = assay: Cytotoxic activity against adriamycin (ADR) resistant L-1210 cell line; assay type: functional, cell-based, Mus musculus
[3] = Relative resistance value of Adriamycin resistant L-1210/L-1210 parental cell line; assay type: functional
L1210 (1565) [4] = assay: cytotoxic activity against adriamycin (ADR) resistant L-1210 cell line; assay type: functional, cell-based, Mus musculus

Row | SMILES | IC50 (HeLa) | IC50 (L1210 (1565) [1]) | IC50 (L1210 (1565) [2]) | Ratio [3] | IC50 (L1210 (1565) [4])
1 | C/C=C/C(=O)OCC1=CCC(C)(C)CC1=O | 4.7 mg/L (≈ 21.1 µM) |  |  |  | 
2 | CC(=O)OCC1=CCC(C)(C)CC1=O | 23.5 mg/L (≈ 120 µM) |  |  |  | 
3 | COc1cccc2c1C(=O)c1c(O)c3c(c(O)c1C2=O)C[C@@](O)(C(C)=O)C[C@@H]3OC1CC(NC(=O)OCC2=CCC(C)(C)CC2=O)C(O)C(C)O1 (some centres undefined) | 0.0096 mg/L (≈ 0.0136 µM) | 0.038 nM ml-1 | 0.14 nM ml-1 | 3.7 | 
4 | CC1(C)CC=C(CO)C(=O)C1 | > 100 mg/L |  |  |  | 
5 | CC1(C)CC=C(CI)C(=O)C1 | 2.3 mg/L (≈ 8.71 µM) |  |  |  | 
6 | COc1cccc2c1C(=O)c1c(O)c3c(c(O)c1C2=O)C[C@@](O)(C(C)=O)C[C@@H]3O[C@H]1C[C@H](N)[C@H](O)[C@H](C)O1.Cl [DAUNORUBICIN HYDROCHLORIDE] |  | 0.016 nM ml-1 | 0.147 nM ml-1 | 9.2 | 
7 | COc1cccc2c1C(=O)c1c(O)c3c(c(O)c1C2=O)C[C@@](O)(C(=O)CO)C[C@@H]3O[C@H]1C[C@H](N)[C@H](O)[C@H](C)O1 [DOXORUBICIN] |  | 0.022 nM ml-1 |  | 14.1 | 0.315 nM ml-1
